Measurements: patent US20230045151A1, “COMPOSITIONS AND METHODS” (MONASH UNIVERSITY, priority 2020, published 2023)

Key:
lung DCs = test: In vivo tracking of DCs after intranasal fluorescently labelled HDM; set-up: species or system mouse; settings: L-tyrosine-treated mice, intranasal HDM-AF647
Method: Mediastinal lymph nodes were filtered through a 40 μm cell strainer, washed with PBS supplemented with 1% fetal bovine serum and 2 mM EDTA (Invitrogen) (MACS buffer). Lungs were finely cut with scissors, digested with Collagenase IV (Gibco™) in Iscove's modified Dulbecco's medium (IMDM, Gibco™) for 50 min at 37° C. and processed as the lymph nodes. Cell counts were determined with Coulter Counter and […] were stained with freshly prepared antibody mix in MACS buffer for 20 minutes at 4° C. in a 96-well round-bottom plates (Costar). Dendritic cells were identified using monoclonal antibodies against CD11c-phycoerythrin (PE)/Cy7 (Biolegend, cat nr 117318; diluted 1:400 in MACS buffer), SiglecF-Alexa Fluor (AF) 647 (BD Biosciences™, 562680; 1:400) and MHC-II-AF700 (Biolegend, 107622, 1:800). DC activation was assessed using antibodies against PD-L2-PE (Biolegend, 107205; 1:200), CD80− Brilliant Violet (BV)-605 (Biolegend, 104729; 1:200) and CD86-BV650 (Biolegend, 105035; 1:200). T helper cells were identified using antibodies against CD3c-Pacific Blue (PB) (Biolegend, 100214; 1:800) and CD4− PerCP-Cy5.5 (Biolegend, 100434; 1:800). Activated T helper cells were identified using anti-CD44-PE antibody (BD Biosciences™, 553134, 1: 400) A regulatory subset of T helper cells (Tregs) was identified with the addition of anti-CD25-AF700 (Biolegend, 102024; 1:200) and anti-Foxp3-AF647 (Biolegend, 126408; 1:200) antibodies. For the latter, an intracellular staining was performed, where cells were incubated with anti-Foxp3 antibody diluted in 0.5% saponin from Quillaja bark (Sigma-Aldrich) for 40 minutes at 4° C. B cells were identified with anti-CD19-PE/Cy7 (eBioscience, 25-0193; 1:200) and anti-B220-FITC (Biolegend, 103206; 1:200). When indicated, HEL and HDM were labelled with Alexa Fluor 647 antibody labelling kit (Invitrogen™) and separated from the unlabelled dye with the use of PD-10 desalting columns (GE Healthcare). […] Samples were analyzed with FlowJo 10.4.2 software (Tree Star Inc., Ashland, Oreg.). […]

pulmonary DCs = test: DC:T cell co-culture (priming of naive OT-II cells / restimulation of effector Th cells); assay type: cell-based, mouse; settings: pulmonary DCs from L-tyrosine-treated mice
From the text: Data from a-c are pooled from two experiments (a, b, n=10 biologically independent samples per group; c, n=9 biologically independent samples per group). Data in d represent technical replicates (n=6 left panel, n=5 right panel) from one experiment. Data in e are pooled from 3 independent experiments (n=6 per group). Data in f are pooled from two independent experiments (n=5 biologically independent samples per group). Data in g are pooled from two independent experiments (n=9 biologically independent samples per group). Data in h are pooled from two independent experiments (n=4 biologically independent samples per group). All data are presented as mean values±s.e.m. Statistical significance for a-d, f, g, was evaluated with unpaired Student's t-test (in the case of Gaussian distribution) or Mann-Whitney test (non-Gaussian distribution). Statistical significance for e, h was determined with One-Way analysis of variance (ANOVA) with Dunnett correction for multiple comparisons. Data distribution was assessed with D'Agostino & Pearson normality test. *p≤0.05, **p≤0.01, ***p≤0.001, ****p≤0.0001
DC: T cell co-cultures were set-up by sorting CD11c+ SiglecF− (DCs) and CD4+CD44+ T cells from the lungs of HDM-immunized mice on FACSAria III (BD Biosciences™, San Jose, Calif.). […]

N[C@@H](Cc1ccc(O)cc1)C(=O)O [L-tyrosine] was tested, and the “activation of lung DCs (surface CD80, CD86, PD-L2)” value (lung DCs) was “impairment”, the “antigen (HDM) uptake by lung DCs” value (lung DCs) was “modest effect” and the “migratory capacity of DCs (frequency of HDM+ DCs in the draining LNs)” value (lung DCs) was “decreased”. For the same compound, the “capacity of DCs to restimulate in vivo-primed effector T helper cells into an IL-13-producing subset” value (pulmonary DCs) was “impaired” and the “capacity of DCs to prime naive CD4+ T cells into an IL-13-producing subset” value (pulmonary DCs; OT-II cells) was “impaired”.
